Reference: patent US9889146B2, “Benzoxaborole compounds and uses thereof” (priority 2012, dated 2018)
≈ marks a conversion by molar mass, not a printed value. Like-named read-outs stand apart in the source and are kept apart here.

Legend:
Type in all cases: cell-based
[1] = tested on: Citrobacter freundii (AmpC); assay: microbe, parasite or virus in culture; conditions: Citrobacter freundii
[2] = tested on: E. coli isolates from subject E. coli 1; assay: MIC in M9 minimal media of clinical isolates, subject E. coli 1; conditions: Escherichia coli, read-out: MIC in M9 Minimal Media
Description: The E. coli and P. mirabilis strains were cultured on Trypticase Soy Agar/5% blood plates (Becton Dickinson BBL), in cation adjusted Mueller-Hinton II Broth, or in M9 minimal salts (Becton Dickinson) broth containing 0.4% glucose and 200 uM MgSO4. L-Norvaline (Sigma-Aldrich) was prepared at a concentration of 6.4 mg/ml in […], in a final volume of approx 0.5 ml, and stored at −20° C. until required.
Minimum inhibitory concentrations (MICs) were determined using the CLSI (Clinical and Laboratory Standards Institute, formerly NCCLS) recommended broth microdilution methodology [NCCLS, 2003] using defined media.
Throughout this study E. coli and P. mirabilis strains were cultured on Trypticase Soy Agar/5% blood plates, on M9 salts/1.2% Bacto Agar plates, in Cation Adjusted Mueller-Hinton II Broth (CAMHB), or in M9 Minimal Salt Broth containing 0.4% glucose and 200 μM MgSO4. GSK2251052 and norvaline were prepared at a concentration of 6.4 mg/mL (free base) in 100% DMSO and 100% water respectively, aliquoted in 0.5 mL individual stocks, and stored at −20° C. until required.
Minimum inhibitory concentrations (MICs) were determined for each organism using the CLSI (Clinical and Laboratory Standards Institute) recommended broth microdilution methodology [CLSI, 2009].
Strains tested are detailed in Table 15. MICs for norvaline and GSK2251052 could only be determined for E. coli isolates from subject E. coli 1 (Table 16) as M9 Minimal Media could not sustain growth of E. coli isolates from subject E. coli 2 (isolates 2a-2o) or P. mirabilis isolates (isolates 3a-3c) from subject E. coli 3. […] This phenotype is consistent with a mutation in the editing site of LeuRS, which could also be responsible for the concomitant decrease in susceptibility to GSK2251052 observed in isolates from Days 2, 3 and 4 (Table 16).

[3] = tested on: Enterobacter aerogenes (WT); assay: microbe, parasite or virus in culture; conditions: Klebsiella aerogenes, Enterobacter aerogenes (WT)

Which results are given for NC[C@H]1OB(O)c2c(OCCCO)cccc21 [GSK2251052, (S)-3-aminomethyl-7-(3-hydroxy-propoxy)-3h-benzo[c][1,2]oxaborol-1-ol]?
MIC90 [1]: 1 mg/L (≈ 4.22 µM); MIC90 ([1]; read-out: susceptibility category of MIC90): < 4 mg/L; MIC ([2]; 24 h, Isolate 1a, Blood, Day 1): 1 mg/L (≈ 4.22 µM); MIC ([2]; 24 h, Isolate 1b, Urine, Day 1): 1 mg/L (≈ 4.22 µM); MIC ([2]; 48 h, Isolate 1c, Blood, Day 2): 32 mg/L (≈ 135 µM); MIC ([2]; 96 h, Isolate 1e, Blood, Day 4): 32 mg/L (≈ 135 µM); MIC ([2]; Isolate 1d, Blood, Day 3): 32 mg/L (≈ 135 µM); MIC90 ([3]; 199 isolates, read-out: MIC90): 1 mg/L (≈ 4.22 µM); susceptibility category of MIC90 ([3]; GSK2251052 breakpoint, read-out: susceptibility category of MIC90): < 4 mg/L
